Test [1] has as its target T1, BLTR (Homo sapiens, UniProt Q15722). The test can be described thus: Intracellular Ca2+ mobilization in HEK293 cells transfected with pGL-CD11b-hBLTR. The test is classed as cell-based. Set-up: expressed in transfected cells; host or cells: HEK293 (transient transfection with pGL-CD11b-hBLTR, SuperFect). As to conditions: LTB4 100 nM; transiently transfected HEK293 cells.

Test [2] deals with PMN infiltration into ear skin. The test can be described thus: Ear skin inflammation model (topical application, PMN infiltration by MPO). The test is classed as in vivo, mouse. As to conditions: for increase in PMN infiltration into skin compared to vehicle control: LTB4 1 μg topical to ear, MPO; for percent inhibition of LTB4-induced PMN infiltration: 10 μg topical 5 min before LTB4 1 μg. How it is done:
Ear skin inflammation model. hBLTR transgenic and wt mice were anesthetized and 16-phenoxyl-LXA4 (15(S)-16-phenoxy-17,18,19,20-tetranol-LXA4 methyl ester, prepared by total synthesis as in ref. 7 by Prof. N. A. Petasis and colleagues, Dept. of Chemistry, Univ. of Southern California) (10 μg) in 10 μl of acetone was applied to the inner side of right ears. Acetone alone was applied to the left ear as a vehicle control. Five min later, LTB4 (5S, 12R-dihydroxy-6,8,10,14-eicosatetraenoic acid; 1 μg) in 10 μl acetone was applied to both ears. Ear skin punch biopsies were collected for leukocyte MPO activity (Takano, T., Clish, C. B., Gronert, K., Petasis, N. A. and Serhan C. N. 1997. Neutrophil-mediated changes in vascular permeability are inhibited by topical application of aspirin-triggered 15-epi-lipoxin A4 and novel lipoxin B4 stable analogues. J. Clin. Invest. 101: 819-826).

For test [3], the system named is PMN infiltration into lungs. The test can be described thus: Hind limb ischemia-reperfusion induced second organ injury (lung PMN infiltration by MPO). The test is classed as in vivo, mouse. As to conditions: hBLTR transgenic mice. The text has this: Hind limb ischemia-reperfusion induced second organ injury. Mice were anesthetized and ATL analog 15-epi-16-para-fluoro-phenoxy-LXA4 (15(R)-16-para-fluoro-phenoxy-17,18,19,20-tetranol-LXA4 methyl ester), prepared as in (Takano, T., Clish, C. B., Gronert, K., Petasis, N. A. and Serhan C. N. 1997. Neutrophil-mediated changes in vascular permeability are inhibited by topical application of aspirin-triggered 15-epi-lipoxin A4 and novel lipoxin B4 stable analogues. J. Clin. Invest. 101: 819-826) or vehicle was administered intravenously to the transgenic mice. Approximately five minutes later, a tourniquet was placed proximally around each hind limb and secured with a metal clamp (Goldman, G., Welboum, R., Klausner, J. M., Kobzik, L., Valeri, C. R. et al. 1992. Mast cells and leukotrienes mediate neutrophil sequestration and lung edema after remote ischemia in rodents. Surgery 112: 578-586). Vascular occlusion was verified by engorgement and discoloration of the feet. After 3 hours of ischemia, the tourniquets were removed and followed by 3 hours of reperfusion. […] The left lungs were harvested, homogenized in 1.5 ml of potassium phosphate buffer (pH 7.4) and then centrifuged at 14,000 rpm (5 min). […]

Test [4] addresses T1, BLTR. The test can be described thus: Displacement of specific [3H]-LTB4 binding in HEK293 cells stably transfected with BLTR. Set-up: expressed in transfected cells. As to the method: (§1) Cloning and functional expression of hBLTR. Total RNA was isolated from retinoic acid differentiated HL-60 cells using TriZol reagent (GIBCO BRL, Grand Island, N.Y.) and reverse-transcribed for 30 min at 50° C. followed by 40 cycles of polymerase chain reactions (PCR) using Vent DNA polymerase (New England BioLabs, Beverly, Mass.) (98° C. for 1 min, 60° C. for 1 min and 72° C. for 2 min) with specific primers for hBLTR (BLTR-N: 5′[…]-3′ and BLTR-C: 5′[…]-3′) (Fiore, S., Romano, M., Reardon, E. M. and Serhan, C. N. 1993. Induction of functional lipoxin A4 receptors in HL-60 cells. Blood 81: 3395-3403). HBLTR cDNA was inserted into pGL vector (Promega) at HindII-PpuMI site downstream of CD11b promoter. HEK293 cells were transfected with this pGL-CD11b-hBLTR construct using SuperFect reagent (Qiagen, Chatsworth, Calif.). Ligand binding and intracellular Ca^2+ release were carried out as in refs. (Yokomizo, T., Izumi, T., Chang, K., Takuwa, Y. and Shimizu, T. 1997. A G-protein-coupled receptor for leukotriene B4 that mediates chemotaxis. Nature 387: 620-624) and (Ng, C. F., Sun, F. F., Taylor, B. M., Wolin, M. S. and Wong, P. Y. 1991. Functional properties of guinea pig eosinophil leukotriene B4receptors. J. Immunol. 147: 3096-3103), respectively. […]

Test [5] concerns HEK293 cells with BLTR and ALXR (stable transfectants). The test can be described thus: Cytosensor microphysiometry of extracellular acidification rate (EAR) in HEK293 cells with BLTR and ALXR. The test is classed as cell-based, human. As to conditions: LXA4 1 μM 20 min prior to LTB4 1 μM. How it is done: as §1

T1 sequence (Q15722 whole entry): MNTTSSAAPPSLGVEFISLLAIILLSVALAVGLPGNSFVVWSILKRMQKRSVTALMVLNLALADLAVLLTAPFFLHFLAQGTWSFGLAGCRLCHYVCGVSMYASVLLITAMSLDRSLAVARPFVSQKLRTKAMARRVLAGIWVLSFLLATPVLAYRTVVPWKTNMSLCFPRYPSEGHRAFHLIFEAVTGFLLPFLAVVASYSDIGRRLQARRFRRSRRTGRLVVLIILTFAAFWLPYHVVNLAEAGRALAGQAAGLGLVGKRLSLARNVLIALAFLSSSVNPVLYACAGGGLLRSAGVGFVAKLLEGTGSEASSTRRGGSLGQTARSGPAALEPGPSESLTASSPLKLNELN

Take `CCCCCC=CC[C@@H](O)C=CC=CC=C[C@@H](O)CCCC(=O)O` [LTB4, 5S, 12R-dihydroxy-6,8,10,14-eicosatetraenoic acid, reference compound]: the “mobilization of intracellular Ca2+” value at BLTR [1] was “intracellular Ca^2+ was mobilized”. In addition, the “increase in PMN infiltration into skin compared to vehicle control” value in test [2] (hBLTR transgenic mice, n=10) was 7.4±0.9 fold; in test [2] (wt mice, n=7), 3.2±0.5 fold.

Take `COC(=O)CCC[C@H](O)[C@H](O)C=CC=CC=CC=C[C@@H](O)COc1ccc(F)cc1` [ATL, 15(R)-16-para-fluoro-phenoxy-17,18,19,20-tetranol-LXA4 methyl ester]: the “PMN infiltration into lungs vs vehicle” value in test [3] (10 μg intravenous prior to ischemia-reperfusion, p=0.04, n=3) was “significantly diminished PMN infiltration into lungs”. In test [3] (intravenous prior to ischemia-reperfusion), the “inhibition of PMN infiltration (change)” value is 40-60%.

In the case of `CCCCC[C@H](O)/C=C/C=C\C=C\C=C\[C@@H](O)[C@@H](O)CCCC(=O)O` (relative stereo) [LXA4, 5(S), 6(R), 15(S)-trihydroxy-7,9,13-trans-11-cis eicosatetraenoic acid], the “competition with [3H]-LTB4 binding” value on BLTR [4] was “did not compete with [^3H]-LTB4 binding”. For the same molecule, in test [5], the “effect on LTB4-evoked extracellular acidification rate” value is “nor did LXA4 or its analogs affect LTB4-evoked extracellular acidification rate”.

As to `COC(=O)CCC[C@H](O)[C@H](O)C=CC=CC=CC=C[C@H](O)COc1ccccc1` [LXA4 stable analog, 15(S)-16-phenoxy-17,18,19,20-tetranol-LXA4 methyl ester], in test [2] (MPO activities converted to total number of PMN, 10 μg topical), the “number of PMN whose infiltration was inhibited, hBLTR transgenic relative to wt mice” value is given as 3 times. The “percent inhibition of LTB4-induced PMN infiltration” value is recorded as roughly 45% in test [2] (hBLTR transgenic mice) and roughly 37% in test [2] (wt mice). Further, the “effect on PMN infiltration” value in test [2] (hBLTR transgenic mice, 10 μg topical, representative data from n=3) is on record as “clearly able to block PMN infiltration”.
